Reference: patent US9637491B2, “Pyrazolo[4,3-D]pyrimidines as kinase inhibitors” (Origenis GmbH, priority 2012, dated 2017)

Biological target: T1, SYK kinase (Homo sapiens, UniProt P43405)
T1 construct: purchased Invitrogen, Carlsbad
Assay: SYK assay (OMNIA Kinase Assay, Invitrogen)
Assay type: biochemical
Conditions: SYK Activities; 1 mM ATP, 10 μM Omnia Peptide Substrate Tyr 7, 30° C.
Summary of the method: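 Continuous-read fluorescence kinase assay: SOX-labelled Tyr 7 peptide (10 μM) with 1 mM ATP and 0.2 mM DTT, 30° C, reaction started by adding SYK. Fluorescence (ex 360/em 485 nm) read every 30 s for 30 min. IC50 from sigmoidal fit of reaction velocity versus inhibitor concentration.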

## CC(C)(C#N)n1cc(Nc2nc(-c3ccoc3)nc3cn[nH]c23)cn1 [Example 203, 2-(4-((5-(furan-3-yl)-1H-pyrazolo[4,3-d]pyrimidin-7-yl)amino)-1H-pyrazol-1-yl)-2-methylpropanenitrile]
  IC50: 100 to 1000 nM

## CCN1C(=O)COc2ccc(Nc3nc(-c4ccoc4)nc4cn[nH]c34)cc21 [Example 485, 4-ethyl-6-((5-(furan-3-yl)-1H-pyrazolo[4,3-d]pyrimidin-7-yl)amino)-2H-benzo[b][1,4]oxazin-3(4H)-one]
  IC50: 100 to 1000 nM

## Nc1cccc(-c2nc(Nc3cnn(C4CCOCC4)c3)c3[nH]ncc3n2)c1 [Example 530, 5-(3-aminophenyl)-N-(1-(tetrahydro-2H-pyran-4-yl)-1H-pyrazol-4-yl)-1H-pyrazolo[4,3-d]pyrimidin-7-amine]
  IC50: 10 to 100 nM

## COCCCn1cc(Nc2nc(-c3cocn3)nc3cn[nH]c23)cn1 [Example 245, N-(1-(3-methoxypropyl)-1H-pyrazol-4-yl)-5-(oxazol-4-yl)-1H-pyrazolo[4,3-d]pyrimidin-7-amine]
  IC50: < 10 nM

## FCCn1cc(Nc2nc(C3CC3)nc3cn[nH]c23)cn1 [Example 362, 5-cyclopropyl-N-(1-(2-fluoroethyl)-1H-pyrazol-4-yl)-1H-pyrazolo[4,3-d]pyrimidin-7-amine]
  IC50: 10 to 100 nM

## CC(=O)N1CCN(c2ccc(Nc3nc(-c4ccno4)nc4cn[nH]c34)cc2)CC1 [Example 67, 1-(4-(4-((5-(isoxazol-5-yl)-1H-pyrazolo[4,3-d]pyrimidin-7-yl)amino)phenyl)piperazin-1-yl)ethan-1-one]
  IC50: 100 to 1000 nM

## N#Cc1cc(Nc2nc(-c3c(F)cccc3F)nc3cn[nH]c23)ccc1N1CCOCC1 [Example 502, 5-((5-(2,6-difluorophenyl)-1H-pyrazolo[4,3-d]pyrimidin-7-yl)amino)-2-morpholinobenzonitrile]
  IC50: 10 to 100 nM

## CC(C)Cn1cc(Nc2nc(C(C)(C)C)nc3cn[nH]c23)cn1 [Example 268, 5-(tert-butyl)-N-(1-isobutyl-1H-pyrazol-4-yl)-1H-pyrazolo[4,3-d]pyrimidin-7-amine]
  IC50: 100 to 1000 nM

## COc1ccc(Nc2nc(-c3sccc3C)nc3cn[nH]c23)cc1OC [Example 51, N-(3,4-dimethoxyphenyl)-5-(3-methylthiophen-2-yl)-1H-pyrazolo[4,3-d]pyrimidin-7-amine]
  IC50: 10 to 100 nM

## O=S1(=O)CCc2ccc(Nc3nc(-c4cccs4)nc4cn[nH]c34)cc21 [Example 17, 6-((5-(thiophen-2-yl)-1H-pyrazolo[4,3-d]pyrimidin-7-yl)amino)-2,3-dihydrobenzo[b]thiophene 1,1-dioxide]
  IC50: 100 to 1000 nM

## COc1cc(Nc2nc([C@H]3C[C@@H]3c3ccccc3)nc3cn[nH]c23)ccc1N1CCOCC1 [Example 508, N-(3-methoxy-4-morpholinophenyl)-5-((1S,2S)-2-phenylcyclopropyl)-1H-pyrazolo[4,3-d]pyrimidin-7-amine]
  IC50: 100 to 1000 nM

## COCCCn1cc(Nc2nc(-c3ncco3)nc3cn[nH]c23)cn1 [Example 251, N-(1-(3-methoxypropyl)-1H-pyrazol-4-yl)-5-(oxazol-2-yl)-1H-pyrazolo[4,3-d]pyrimidin-7-amine]
  IC50: 100 to 1000 nM

## CC(=O)N1CCC(n2cc(Nc3nc(-c4ncco4)nc4cn[nH]c34)cn2)CC1 [Example 257, 1-(4-(4-((5-(oxazol-2-yl)-1H-pyrazolo[4,3-d]pyrimidin-7-yl)amino)-1H-pyrazol-1-yl)piperidin-1-yl)ethan-1-one]
  IC50: 100 to 1000 nM

## Fc1cc(Nc2nc(-c3c(F)cccc3F)nc3cn[nH]c23)ccc1N1CCOCC1 [Example 11, 5-(2,6-difluorophenyl)-N-(3-fluoro-4-morpholinophenyl)-1H-pyrazolo[4,3-d]pyrimidin-7-amine]
  IC50: 100 to 1000 nM

## CC(C(=O)O)n1cc(Nc2nc(C3CC3)nc3cn[nH]c23)cn1 (centres unmarked) [Example 504, 2-(4-((5-cyclopropyl-1H-pyrazolo[4,3-d]pyrimidin-7-yl)amino)-1H-pyrazol-1-yl)propanoic acid]
  IC50: 100 to 1000 nM

## CC(=O)N1CCN(c2ccc(Nc3nc(-c4ccco4)nc4cn[nH]c34)cc2)CC1 [Example 111, 1-(4-(4-((5-(furan-2-yl)-1H-pyrazolo[4,3-d]pyrimidin-7-yl)amino)phenyl)piperazin-1-yl)ethan-1-one]
  IC50: 10 to 100 nM

## COCCn1ccc(Nc2nc(C3CCC3)nc3cn[nH]c23)cc1=O [Example 226, 4-((5-cyclobutyl-1H-pyrazolo[4,3-d]pyrimidin-7-yl)amino)-1-(2-methoxyethyl)pyridin-2(1H)-one]
  IC50: 100 to 1000 nM

## CC(C)Cn1cc(Nc2nc(-c3ccoc3)nc3cn[nH]c23)cn1 [Example 240, 5-(furan-3-yl)-N-(1-isobutyl-1H-pyrazol-4-yl)-1H-pyrazolo[4,3-d]pyrimidin-7-amine]
  IC50: 10 to 100 nM

## CC(C)(C)n1cc(Nc2nc(-c3cocn3)nc3cn[nH]c23)cn1 [Example 243, N-(1-(tert-butyl)-1H-pyrazol-4-yl)-5-(oxazol-4-yl)-1H-pyrazolo[4,3-d]pyrimidin-7-amine]
  IC50: 10 to 100 nM

## CC(C)(C)N1CCC(n2cc(Nc3nc(-c4nc5c(s4)CCCC5)nc4cn[nH]c34)cn2)CC1 [Example 495, N-(1-(1-(tert-butyl)piperidin-4-yl)-1H-pyrazol-4-yl)-5-(4,5,6,7-tetrahydrobenzo[d]thiazol-2-yl)-1H-pyrazolo[4,3-d]pyrimidin-7-amine]
  IC50: 10 to 100 nM

## O=C(O)c1cccc(-c2nc(Nc3cnn(C4CCOCC4)c3)c3[nH]ncc3n2)c1 [Example 217, 3-(7-((1-(tetrahydro-2H-pyran-4-yl)-1H-pyrazol-4-yl)amino)-1H-pyrazolo[4,3-d]pyrimidin-5-yl)benzoic acid]
  IC50: 100 to 1000 nM

## c1cncc(-c2nc(Nc3ccc(N4CCOCC4)nc3)c3[nH]ncc3n2)c1 [Example 126, N-(6-morpholinopyridin-3-yl)-5-(pyridin-3-yl)-1H-pyrazolo[4,3-d]pyrimidin-7-amine]
  IC50: 100 to 1000 nM

## COc1cccc(-c2nc(Nc3cnn(C4CCN(C(C)(C)C)CC4)c3)c3[nH]ncc3n2)c1 [Example 407, N-(1-(1-(tert-butyl)piperidin-4-yl)-1H-pyrazol-4-yl)-5-(3-methoxyphenyl)-1H-pyrazolo[4,3-d]pyrimidin-7-amine]
  IC50: 10 to 100 nM

## CN1C(=O)COc2ccc(Nc3nc(-c4ccoc4)nc4cn[nH]c34)cc21 [Example 488, 6-((5-(furan-3-yl)-1H-pyrazolo[4,3-d]pyrimidin-7-yl)amino)-4-methyl-2H-benzo[b][1,4]oxazin-3(4H)-one]
  IC50: 10 to 100 nM

## CC(C)n1cc(Nc2nc(C(C)(C)C)nc3cn[nH]c23)cn1 [Example 269, 5-(tert-butyl)-N-(1-isopropyl-1H-pyrazol-4-yl)-1H-pyrazolo[4,3-d]pyrimidin-7-amine]
  IC50: 10 to 100 nM

## CC(C)Cn1cc(Nc2nc(C3CC3)nc3cn[nH]c23)cn1 [Example 233, 5-cyclopropyl-N-(1-isobutyl-1H-pyrazol-4-yl)-1H-pyrazolo[4,3-d]pyrimidin-7-amine]
  IC50: 10 to 100 nM

## OCCn1cc(Nc2nc(-c3ncco3)nc3cn[nH]c23)cn1 [Example 253, 2-(4-((5-(oxazol-2-yl)-1H-pyrazolo[4,3-d]pyrimidin-7-yl)amino)-1H-pyrazol-1-yl)ethan-1-ol]
  IC50: 100 to 1000 nM

## Fc1cccc(F)c1-c1nc(Nc2ccc3c(c2)NCCO3)c2[nH]ncc2n1 [Example 537, N-(5-(2,6-difluorophenyl)-1H-pyrazolo[4,3-d]pyrimidin-7-yl)-3,4-dihydro-2H-benzo[b][1,4]oxazin-6-amine]
  IC50: 10 to 100 nM

## COCCn1cc(Nc2nc(-c3cocn3)nc3cn[nH]c23)cn1 [Example 128, N-(1-(2-methoxyethyl)-1H-pyrazol-4-yl)-5-(oxazol-4-yl)-1H-pyrazolo[4,3-d]pyrimidin-7-amine]
  IC50: 100 to 1000 nM
